Reference: patent EP0542549A1, “Use of cosmetic composition” (UNILEVER PLC, priority 1991, dated 1993)

Test system: pig skin stratum corneum
Assay: In vitro measurement of stratum corneum extensibility (linear extensometer)
Conditions: 44% relative humidity; for Extensibility ratio: ratio of force/extension slopes before and after treatment, 2% extension at 20mm/min, application 4µl/cm² (25ng), mean ± standard deviation, ratio >1 = increased extensibility
Text: The benefits of the composition following topical application to skin can be quantified by in vitro measurements employing pig skin and an extensometer, in accordance with the following procedure.
Pig skin was selected for this evaluation and this was first cleaned with an aqueous ethanol-chlorohexidine solution (15 : 75 : 10:, Hibitane; ICI Pharmaceuticals). Hairs were removed by clipping followed by depilation with commercially-available thioglycolate cream (Immac : Whitehall Laboratories) and 0.4mm thick slices of skin were removed using a Davies electric skin dermatome. Stratum corneum was isolated by incubating strips of skin, dermis side down, into a solution of trypsin (0.25g% Flow Laboratories) and phosphate-buffered saline (PBS) comprising 137mM NaCl; 2.68mM KCl; 8.1mM NaHPO₄; 1.47mM KH₂PO₄ at pH 7.4 for 2-4h at 37°C. The dermis was separated from the epidermis using forceps and the latter was incubated in fresh trypsin-PBS solution overnight at 4°C. The enzyme solution was changed several times on the following day before the stratum corneum was washed with sonication (Lucas Dawe Ultrasonics; bath sonicleaner) and three changes of PBS to remove trypsin and residual cells. The corneum was then washed with distilled water containing 0.02% sodium azide (to inhibit bacterial growth) before floating onto fluorocarbon filter (Spectra-mesh; 149µ mesh). After drying at ambient temperature and humidity the sheets of corneum were cut into rectangular strips measuring 1 x 2.5cm. The pieces of corneum were mounted at each end with plastic tape (Flow tape; Flow Laboratories) and a 6mm hole was punched into the centre of each tab. During this whole procedure the orientation of the stratum corneum was maintained to ensure samples were treated on their external surfaces only in subsequent experiments. Samples were stored in petri-dishes at ambient humidity and temperature until required. […]
The extensibility of pig skin stratum corneum was measured following treatment with ω-(O-linoleoyl)ceramide having the structure (12), as herein defined. […]

With `CCCCC/C=C\C/C=C\CCCCCCCC(=O)OCCCCCCCCCCCCCCCCCCCCCC(=O)NC(CO)C(O)C=CCCCCCCCCCCCCC` (stereo not drawn) [Ceramide structure (12), ω-(O-linoleoyl)ceramide] the Extensibility ratio was 2.11 ± 0.45 and the “extensibility ratio compared with hydrolysed ceramide structure (12) or linoleate” value (students t test, significance at the 5% level, 4µl/cm² (25ng)) was “significantly greater”.

Work on `CCCCC/C=C\C/C=C\CCCCCCCC(=O)O` [Linoleate, reference compound] yielded an Extensibility ratio of 1.29 ± 0.16.
